Data set [1] is described as follows: refractive index (Na D-line) (dimensionless). As to conditions: 298.15 K; 101.33 kPa; Liquid; Standard Abbe refractometry.
For data set [2] the following is noted: Liquid; for mass density: 298.15 K, 101.33 kPa.

This note sets out measurements from the NIST ThermoML archive (doi:10.1021/je900470r).

Numbers after ± are expanded uncertainties.

`CCC(C)=O` [butanone]: in data set [1], the refractive index – broadly, a measure of how strongly the sample bends light – was 1.3761 ± 0.0005. In data set [2], the mass density (usually mass per unit of volume) stood at 799.62 ± 0.23 kg/m3. Besides, the vapor or sublimation pressure (usually the equilibrium pressure above the liquid or solid) in data set [2] (352.68 K) is 101.3 ± 0.2 kPa.

As to `CCCCOC(=O)CC` [butyl propanoate], in data set [1], the refractive index is recorded as 1.3992 ± 0.0005. Besides, in data set [2], the mass density came out at 870.88 ± 0.48 kg/m3. In addition, the “vapor or sublimation pressure” value in data set [2] (418.69 K) amounted to 101.3 ± 0.3 kPa.

For `CCO` [ethanol], the refractive index in data set [1] turned out to be 1.3594 ± 0.0005. Also, the mass density in data set [2] amounted to 786.47 ± 0.5 kg/m3. For the same compound, the “vapor or sublimation pressure” value in data set [2] (351.46 K) is 101.3 ± 0.2 kPa.

With `CC(C)O` [propan-2-ol], in data set [1], the refractive index was determined as 1.3754 ± 0.0005. Also, the mass density in data set [2] is recorded as 780.75 ± 0.24 kg/m3.
